Measured values as given in US20250361209A1, “CRYSTAL FORMS OF N-(3-FLUOROPHENYL)-6-(6,7-DIMETHOXYQUINOLIN-4-OXY)-3,4-DIHYDROQUINOLINE-1(2H)-CARBOXAMIDE METHANESULFONATE AND PREPARATION METHOD THEREOF” (Shanghai Yi Feng Biotechnology Co., Ltd., priority 2023, published 2025).
Entries after “also recorded” stand apart in the source; their conditions may differ.

How the values were obtained:
Format in all cases: physicochemical
[1] = Solid state stability of the crystalline form C of methanesulfonate (HPLC purity, XRPD); settings: for change in HPLC purity: closed condition 60° C. 24 hours, open condition 25° C./60% RH 1 week or 4 weeks, methanesulfonate
Method: The purity decreased from 99.22 area % to 98.80 area % after the crystalline form C was placed under an open condition in an environment of 40° C./75% RH for 4 weeks, with a 0.38% increase in the impurity at RRT of 0.81.

[2] = Test of influencing factors of crystalline forms A, B and C (total impurity)
Text: Example 3 Test of Influencing Factors of Crystalline Forms A, B and C

Hygroscopicity, DVS test = assay: Hygroscopicity, DVS test
Method: The hygroscopicity of the anhydrate crystalline form C of methanesulfonate was evaluated by a DVS test at 0% RH-95% RH at 25° C.

[3] = 60° C./closed condition/24 hours
[4] = Start* (RH tests; stored at −20° C.)
[5] = open condition 40° C./75% RH, 4 weeks

Purity, area %, peak 1 RRT 0.42 ([1]; 25° C./60% RH open, 1 week*): 0.02 area % | Purity, area %, peak 2 RRT 0.60-0.61 ([1]; 25° C./60% RH open, 1 week*): 0.04 area % | Purity, area %, peak 3 RRT 0.81 ([1]; 25° C./60% RH open, 1 week*): 0.55 area % | Purity, area %, peak 4 RRT 0.93 ([1]; 25° C./60% RH open, 1 week*): 0.05 area % | Purity, area %, peak 5 RRT 1.00 (main peak) ([1]; 25° C./60% RH open, 1 week*): 99.15 area % | Purity, area %, peak 6 RRT 1.10 ([1]; 25° C./60% RH open, 1 week*): 0.14 area % | Purity, area %, peak 7 RRT 1.27 ([1]; 25° C./60% RH open, 1 week*): 0.06 area % | Purity, area %, peak 1 RRT 0.42 ([1]; 25° C./60% RH open, 4 weeks): 0.02 area % | Purity, area %, peak 2 RRT 0.60-0.61 ([1]; 25° C./60% RH open, 4 weeks): 0.05 area % | Purity, area %, peak 3 RRT 0.81 ([1]; 25° C./60% RH open, 4 weeks): 0.54 area % | Purity, area %, peak 4 RRT 0.93 ([1]; 25° C./60% RH open, 4 weeks): 0.05 area % | Purity, area %, peak 5 RRT 1.00 (main peak) ([1]; 25° C./60% RH open, 4 weeks): 99.14 area % | Purity, area %, peak 6 RRT 1.10 ([1]; 25° C./60% RH open, 4 weeks): 0.14 area % | Purity, area %, peak 7 RRT 1.27 ([1]; 25° C./60% RH open, 4 weeks): 0.06 area % | Purity, area %, peak 1 RRT 0.42 ([1]; 40° C./75% RH open, 1 week*): 0.03 area % | Purity, area %, peak 2 RRT 0.60-0.61 ([1]; 40° C./75% RH open, 1 week*): 0.04 area % | Purity, area %, peak 3 RRT 0.81 ([1]; 40° C./75% RH open, 1 week*): 0.69 area % | Purity, area %, peak 4 RRT 0.93 ([1]; 40° C./75% RH open, 1 week*): 0.04 area % | Purity, area %, peak 5 RRT 1.00 (main peak) ([1]; 40° C./75% RH open, 1 week*): 99.02 area % | Purity, area %, peak 6 RRT 1.10 ([1]; 40° C./75% RH open, 1 week*): 0.13 area % | Purity, area %, peak 7 RRT 1.27 ([1]; 40° C./75% RH open, 1 week*): 0.06 area % | Purity, area %, peak 1 RRT 0.42 ([1]; 40° C./75% RH open, 4 weeks): 0.03 area % | Purity, area %, peak 2 RRT 0.60-0.61 ([1]; 40° C./75% RH open, 4 weeks): 0.08 area % | Purity, area %, peak 3 RRT 0.81 ([1]; 40° C./75% RH open, 4 weeks): 0.86 area % | Purity, area %, peak 4 RRT 0.93 ([1]; 40° C./75% RH open, 4 weeks): 0.05 area % | Purity, area %, peak 5 RRT 1.00 (main peak) ([1]; 40° C./75% RH open, 4 weeks): 98.80 area % | Purity, area %, peak 6 RRT 1.10 ([1]; 40° C./75% RH open, 4 weeks): 0.13 area % | Purity, area %, peak 7 RRT 1.27 ([1]; 40° C./75% RH open, 4 weeks): 0.05 area % | Purity, area %, peak 1 RRT 0.42 [1, 3]: 0.03 area % | Purity, area %, peak 2 RRT 0.60-0.61 [1, 3]: 0.05 area % | Purity, area %, peak 3 RRT 0.81 [1, 3]: 0.55 area % | Purity, area %, peak 4 RRT 0.93 [1, 3]: 0.05 area % | Purity, area %, peak 5 RRT 1.00 (main peak) [1, 3]: 99.12 area % | Purity, area %, peak 6 RRT 1.10 [1, 3]: 0.15 area % | Purity, area %, peak 7 RRT 1.27 [1, 3]: 0.05 area % | Purity, area %, peak 1 RRT 0.42 ([1]; Start (60° C. closed test)): 0.03 area % | Purity, area %, peak 2 RRT 0.60-0.61 ([1]; Start (60° C. closed test)): 0.05 area % | Purity, area %, peak 3 RRT 0.81 ([1]; Start (60° C. closed test)): 0.54 area % | Purity, area %, peak 4 RRT 0.93 ([1]; Start (60° C. closed test)): 0.05 area % | Purity, area %, peak 5 RRT 1.00 (main peak) ([1]; Start (60° C. closed test)): 99.13 area % | Purity, area %, peak 6 RRT 1.10 ([1]; Start (60° C. closed test)): 0.15 area % | Purity, area %, peak 7 RRT 1.27 ([1]; Start (60° C. closed test)): 0.06 area % | Purity, area %, peak 1 RRT 0.42 [1, 4]: 0.02 area % | Purity, area %, peak 2 RRT 0.60-0.61 [1, 4]: 0.03 area % | Purity, area %, peak 3 RRT 0.81 [1, 4]: 0.48 area % | Purity, area %, peak 4 RRT 0.93 [1, 4]: 0.05 area % | Purity, area %, peak 5 RRT 1.00 (main peak) [1, 4]: 99.22 area % | Purity, area %, peak 6 RRT 1.10 [1, 4]: 0.14 area % | Purity, area %, peak 7 RRT 1.27 [1, 4]: 0.06 area % | crystalline form after the stability test (XRPD) ([1]; after stability test): no change in crystalline form | change in HPLC purity ([1]; listed as crystalline form C of methanesulfonate): no significant decrease | change in HPLC purity [1]: No significant change | decrease in purity [1, 5]: 0.42 area % | increase in the impurity at RRT of 0.81 [1, 5]: 0.38% | Total impurity % ([2]; High humidity (RH92.5%), 0 day): 0.66% | Total impurity % ([2]; High humidity (RH92.5%), 10 days): 0.75% | Total impurity % ([2]; High humidity (RH92.5%), 30 days): 0.73% | Total impurity % ([2]; High temperature (60° C.), 0 day, methanesulfonate): 0.66% | Total impurity % ([2]; High temperature (60° C.), 10 days, methanesulfonate): 0.81% | Total impurity % ([2]; High temperature (60° C.), 30 days): 0.85% | Total impurity % ([2]; Illumination (5000 + 500 lux), 0 day, methanesulfonate): 0.66% | Total impurity % ([2]; Illumination (5000 + 500 lux), 10 days, methanesulfonate): 0.83% | Total impurity % ([2]; Illumination (5000 + 500 lux), 30 days, methanesulfonate): 0.89% | hygroscopicity classification (Hygroscopicity, DVS test; DVS 0% RH-95% RH at 25° C., classification per Chinese Pharmacopoeia 2015): slight hygroscopicity | hygroscopic weight gain (Hygroscopicity, DVS test; DVS, 25° C./80% RH): about 0.46%
Compound: COc1cc2nccc(Oc3ccc4c(c3)CCCN4C(=O)Nc3cccc(F)c3)c2cc1OC [Crystalline form C, N-(3-fluorophenyl)-6-(6,7-dimethoxyquinolin-4-oxy)-3,4-dihydroquinoline-1(2H)-carboxamide methanesulfonate]
solid state stability compared with other crystalline forms [1]: better than that of the crystalline form A and the crystalline form B | hygroscopicity compared with other crystalline forms (Hygroscopicity, DVS test): better than that of the crystalline form A and the crystalline form B | crystalline form after the DVS test (XRPD) (Hygroscopicity, DVS test; after DVS test, listed as crystalline form C of methanesulfonate, methanesulfonate): no change in crystalline form; also recorded: remained unchanged
